Laboratory results from BindingDB's records for doi:10.7270/Q2N014XN (Srmlsc, 2007).

target: T1, Diphosphomevalonate decarboxylase (Streptococcus pneumoniae serotype 2 (strain D39 / NCTC 7466), UniProt A0A0H2ZN59); assay: diphosphomevalonate decarboxylase inhibition dose curves – biochemical, PK/LDH-coupled NADH fluorescence, hexokinase coupling counter-screen, dose response (AID 550); settings: not given
T1 sequence (A0A0H2ZN59 whole entry): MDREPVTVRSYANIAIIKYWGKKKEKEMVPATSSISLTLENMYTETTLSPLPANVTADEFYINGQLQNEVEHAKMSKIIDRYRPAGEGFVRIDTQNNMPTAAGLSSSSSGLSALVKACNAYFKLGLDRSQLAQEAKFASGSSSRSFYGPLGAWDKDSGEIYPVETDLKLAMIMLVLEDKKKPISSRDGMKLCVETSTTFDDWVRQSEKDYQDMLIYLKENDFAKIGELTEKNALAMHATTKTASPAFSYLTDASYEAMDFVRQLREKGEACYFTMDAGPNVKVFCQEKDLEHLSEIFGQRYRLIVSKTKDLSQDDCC

Row | Structure (SMILES) | IC50
1 | Cn1/c(=N/C(=O)c2ccco2)sc2cccc(F)c21 [MLS000101506] | > 10000 µM
2 | CC1Cc2nc(SCC(=O)Nc3ccc4c(c3)OCO4)n(CCc3ccccc3)c(=O)c2S1 (centres undefined) [MLS000101671] | > 10000 µM
3 | CCc1ccc(NC(=O)c2cnc3scc(C)n3c2=O)cc1 [MLS000102000] | > 10000 µM
4 | Cc1cccc(C(=O)Nc2cc(=O)n(C)c(=O)n2C)c1 [MLS000103605] | > 10000 µM
5 | O=C(c1cc2nc(-c3ccc(F)cc3)cc(C(F)(F)F)n2n1)N1CCCC1 [MLS000109312] | 53 µM
6 | CCC(=O)Nc1nnc(Sc2ccc(N(C)C)cc2)s1 [MLS000109846] | > 10000 µM
7 | Sc1nnc(-c2ccccc2)n1C1C=CCCC1 (centres undefined) [MLS000111390] | > 10000 µM
8 | COC(=O)Cc1sc(=O)[nH]c1Nc1ccccc1 [MLS000111966] | > 10000 µM
9 | CC1CC(C)CN(CCCNC(=O)Cn2ncc3c(=O)oc4ccccc4c32)C1 (centres undefined) [MLS000116997] | > 10000 µM
10 | CCOc1ccc(N(CC(=O)NC2CCCC(C)C2C)S(=O)(=O)c2c(C)noc2C)cc1 (centres undefined) [MLS000117395] | > 10000 µM
11 | CCOc1ccc(N(CC(=O)Nc2ccc(F)c(F)c2)S(=O)(=O)c2c(C)noc2C)cc1 [MLS000117397] | > 10000 µM
12 | CCN(CCNC(=O)C1CCN(c2nnc(-n3cccc3)s2)CC1)c1ccccc1 [MLS000119699] | > 10000 µM
13 | CCOc1cc2[nH]c(=O)n(Cc3ccc(C(=O)NCCOC)cc3)c(=O)c2cc1OCC [MLS000120003] | 183 µM
14 | CN(C)S(=O)(=O)c1cccc(C(=O)C2=C3SC=C(c4ccccc4)N3CC2)c1 [N,N-dimethyl-3-[(3-phenyl-5,6-dihydropyrrolo[2,1-b][1,3]thiazol-7-yl)carbonyl]benzenesulfonamide] | > 10000 µM
15 | COCCN(Cc1cc2cc3c(cc2[nH]c1=O)OCO3)C(=O)c1cccs1 [N-(2-methoxyethyl)-N-[(6-oxidanylidene-5H-[1,3]dioxolo[4,5-g]quinolin-7-yl)methyl]thiophene-2-carboxamide] | 37.6 µM
16 | COc1ccccc1NC(=O)CSc1nc(O)cc(=O)n1-c1ccccc1OC [N-(2-methoxyphenyl)-2-[1-(2-methoxyphenyl)-6-oxidanyl-4-oxidanylidene-pyrimidin-2-yl]sulfanyl-ethanamide] | > 10000 µM
17 | Cc1cccc2cc(CN(Cc3ccco3)S(=O)(=O)c3ccc4c(c3)OCCO4)c(=O)[nH]c12 [N-(furan-2-ylmethyl)-N-[(8-methyl-2-oxidanylidene-1H-quinolin-3-yl)methyl]-2,3-dihydro-1,4-benzodioxine-6-sulfonamide] | > 10000 µM
18 | CCN(CC)CCCN(Cc1cc2cc3c(cc2nc1O)OCCO3)C(=O)Nc1ccccc1 [SMR000004152] | > 10000 µM
19 | Nc1cc(N)cc(-c2nc3ccccc3[nH]2)c1 [SMR000008815] | 79.1 µM
20 | COc1ccc(-c2nc(C(N)=O)c3[nH]c(=O)n(-c4cccc(C)c4)c3n2)c(OC)c1 [SMR000016861] | 128 µM
21 | CCOC(=O)c1sc(Nc2nc3c(OC)cccc3s2)nc1C [SMR000027213] | 2.35 µM
22 | O=c1c2cc(N3CCOCC3)ccc2[nH]c(=S)n1CCCN1CCN(c2ccccc2F)CC1 [SMR000030978] | 58.7 µM
23 | Cc1ccc(C2C3CN(C(C)C)CCC3=C(C#N)C(=N)C2(C#N)C#N)cc1 (centres undefined) [SMR000034220] | 39.6 µM
24 | Cc1nc(-c2cnn(-c3ccccc3)c2)c2cc(C)oc2n1 [SMR000046165] | > 10000 µM
25 | N#Cc1c(S)nc2c(c1-c1cccnc1)CCCC2 [SMR000104204] | 20.1 µM
26 | CCOC(=O)C1=C(C)N=C(C)C(C(=O)OCC)C1c1cc2ccc(C)cc2[nH]c1=O (centres undefined) [diethyl 2,6-dimethyl-4-(7-methyl-2-oxidanylidene-1H-quinolin-3-yl)-1,4-dihydropyridine-3,5-dicarboxylate] | 150 µM

same assay, conditions: inactive by the depositor's call

Row | Structure (SMILES) | IC50
27 | Cc1csc2ncc(C(=O)Nc3ccccc3Cl)c(=O)n12 [MLS000102002] | 47.4 µM
28 | Cc1ccc(-c2cc(C(F)(F)F)n3ncc(C(=O)NCc4ccco4)c3n2)cc1 [MLS000109298] | 59.2 µM
29 | CCCCNC(=O)c1ccc2nc(-c3ccco3)c(-c3ccco3)nc2c1 [MLS000119995] | 75.6 µM
